Reference: PubChem BioAssay (NCI)
Where “and” joins values, the source holds several entries; their conditions need not be identical. Equal entries are not always repeated.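 Dose response: 5 concentrations. Exposure: 48 h. Format: 96-well plates. Endpoint: linear interpolation; highest concentration if not reached. GI50 is the concentration that inhibits growth by half. Definition used: TGI = concentration required for complete inhibition of growth.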

What follows are compounds tested on OVCAR-5 ovarian (assay: DTP human tumour cell line panel, 48 h).

SMILES | TGI | GI50
O=C1c2ccccc2C(=O)N1C/C=N/NS(=O)(=O)c1ccc(Br)cc1 | > 100 µM | 
COc1ccc(-c2noc(N)c2-c2cc(OC)c3c(c2)OCO3)cc1 | > 82.2 µM | 5.63 µM
NC(=O)c1cn(Cc2ccccc2)c(=O)n1Cc1ccccc1 | > 100 µM | 
CCOC(=O)C(C)(c1c(C)[nH]c2ccccc12)c1c(C)[nH]c2ccccc12 | 35.5 µM | 
Cc1c(Cl)cccc1NC(=O)c1cccc([N+](=O)[O-])c1O | > 93.8 µM | 
CC1COS(=O)O1 (centres undefined) | > 100 µM | 
CC1CCC(C(C)(C)c2ccccc2)C(=O)C1 (centres undefined) | > 100 µM | 
CC1(C)N=C(N)N=C(N)N1c1cccc(OCCOc2cccc([N+](=O)[O-])c2)c1 | > 100 µM | 1.88 µM
O=C(NC1CCCCC1)c1ccc(Nc2ncnc3c2cnn3-c2ccccc2)cc1 | 95.2 µM | 15.2 µM
O=C1CC2CCN(C(=O)c3ccccc3)CC2CCN1 (centres undefined) | > 100 µM | 
N#CC(C#N)=C1CCCOc2c1ccc1ccccc21 | > 100 µM | > 100 µM
O=C1C=CC(=CC=C2C=CN(CCCCCCCCCCC(=O)NCCCCCCCCCCCC(=O)O)C=C2)C=C1 | > 100 µM | 
N#Cc1c(-c2ccco2)cc(-c2ccc(N)cc2)[nH]c1=O | > 100 µM | 
C=CCC1(C)CCCCC1(O)CS(=O)c1ccccc1 (centres undefined) | > 100 µM | 
C1COCCSC2=C(SCCO1)SC(=C1SC3=C(SCCOCCOCCS3)S1)S2 | > 100 µM | 
COc1cc(C(=O)O[C@H](C(N)=O)[C@]2(C)CO2)c2cccc(C)c2c1 | 6.01 µM | 0.766 µM
O=C(Nc1ccc(Cl)cc1)Nc1nccs1 | > 100 µM | 12.8 µM
COc1cc(/C=N\O[Si](C)(C)C(C)(C)C)ccc1O[Si](C)(C)C(C)(C)C | 68.7 µM | 
CC12CCC(=O)N1c1cccnc1N2 (centres undefined) | > 100 µM | 
COc1cc2c(cc1OC)C1Cc3cc(OC)c(OC)cc3N1CC2 (centres undefined) | > 100 µM | 
O=C(N/N=C/c1ccc(O)cc1O)c1cccnc1 | > 100 µM | 14 µM
O=C(NNc1cnccn1)c1nc2cc(F)ccc2n2cccc12 | > 100 µM | 0.828 µM
O=C1C2[C@@H](C(=O)N1c1ccc(Br)cc1)C13C(=CC2([N+](=O)[O-])[C@@H]2C(=O)N(c4ccc(Br)cc4)C(=O)[C@@H]21)c1ccccc1N3c1ccccc1 (some centres undefined) | > 100 µM | 
O=C1/C(=C/N2N=C(c3ccc4ccccc4c3)CC2c2ccccc2O)SC(=S)N1c1cccnc1 (centres undefined) | > 100 µM | 6.19 µM
Nc1ccc(C2=N/C(=C\c3cccc(N)c3)C(=O)O2)cc1 | > 100 µM | 
CC(=O)[CH-]C(=O)c1ccccc1.CC(=O)[CH-]C(=O)c1ccccc1.O=S(=O)([O-])c1cc([O-])c2c([O-])cc(S(=O)(=O)[O-])cc2c1.[Na+].[Ti+4] | > 100 µM | > 100 µM
NCCN.O=C([O-])[O-].O=C([O-])[O-].[Co+3].[K+] | > 100 µM | > 100 µM
C1=NC(N(Cc2ccccc2)Cc2ccccc2)N(Cc2ccccc2)N1 (centres undefined) | 42 µM | 

The compounds below were run on SNB-75 CNS (assay: DTP human tumour cell line panel, 48 h).

SMILES | TGI | GI50
CCc1cccc(C)c1NC(=O)CC1C(=O)Nc2ccccc2S1=O (centres undefined) | > 100 µM | 
Cc1ccc(N2C(=O)N(c3ccc(C)cc3)C3(SC=NN3C)C2=O)cc1 (centres undefined) | > 100 µM | 
O=C1c2ccc3c4ccccc4n(-c4ccccc4)c3c2C(=O)N1c1ccc(Cl)cc1 | > 100 µM | 
Cc1ccc2c(c1-c1ccccc1)C(=O)OC2 | > 100 µM | 
CCC[CH2][Sn]1([CH2]CCC)[O]CC(COc2c(Cl)cc(Cl)cc2Cl)[O]1 (centres undefined) | 3.77 µM | 1.17 µM
NC(CCc1ncc(C(=O)O)s1)C(=O)O (centres undefined) | > 100 µM | 
CSc1ccc2c(cc1=O)[C@@H](NC(=O)c1cc(O)c(O)c(O)c1)CCc1cc(O)c(O)c(O)c1-2 | 53.7 µM | 
CNCCn1c(=O)c2cc(OC)c(OC)cc2c2cnc3cc4c(cc3c21)OCO4 | 0.0658 µM | < 0.01 µM
COc1cc(-c2nnc3n2NC=C(C(=O)O)S3)cc(OC)c1OC | > 100 µM | 
C[P+](C)(C)c1ccccc1 | > 100 µM | 
O=C1c2ccccc2C(=O)N1C/C=N/NS(=O)(=O)c1ccc(Br)cc1 | > 100 µM | 
COc1ccc(-c2noc(N)c2-c2cc(OC)c3c(c2)OCO3)cc1 | 7.03 µM | 1.74 µM
NC(=O)c1cn(Cc2ccccc2)c(=O)n1Cc1ccccc1 | > 100 µM | 
CCOC(=O)C(C)(c1c(C)[nH]c2ccccc12)c1c(C)[nH]c2ccccc12 | 48.6 µM | 
Cc1c(Cl)cccc1NC(=O)c1cccc([N+](=O)[O-])c1O | 66.1 µM | 
CC1COS(=O)O1 (centres undefined) | > 100 µM | 
CC1CCC(C(C)(C)c2ccccc2)C(=O)C1 (centres undefined) | > 100 µM | 
CC1(C)N=C(N)N=C(N)N1c1cccc(OCCOc2cccc([N+](=O)[O-])c2)c1 | > 100 µM | 3.26 µM
O=C(NC1CCCCC1)c1ccc(Nc2ncnc3c2cnn3-c2ccccc2)cc1 | 5.4 µM | 1.71 µM

SMILES | TGI | GI50
O=C1CC2CCN(C(=O)c3ccccc3)CC2CCN1 (centres undefined) | > 100 µM | 
O=C1C=CC(=CC=C2C=CN(CCCCCCCCCCC(=O)NCCCCCCCCCCCC(=O)O)C=C2)C=C1 | > 100 µM | 
N#Cc1c(-c2ccco2)cc(-c2ccc(N)cc2)[nH]c1=O | > 100 µM | 
C=CCC1(C)CCCCC1(O)CS(=O)c1ccccc1 (centres undefined) | > 100 µM | 
C1COCCSC2=C(SCCO1)SC(=C1SC3=C(SCCOCCOCCS3)S1)S2 | 51.4 µM | 
COc1cc(C(=O)O[C@H](C(N)=O)[C@]2(C)CO2)c2cccc(C)c2c1 | 4.13 µM | 0.933 µM
O=C(Nc1ccc(Cl)cc1)Nc1nccs1 | > 100 µM | 2.02 µM
COc1cc(/C=N\O[Si](C)(C)C(C)(C)C)ccc1O[Si](C)(C)C(C)(C)C | > 100 µM | 
CC12CCC(=O)N1c1cccnc1N2 (centres undefined) | > 100 µM | 
COc1cc2c(cc1OC)C1Cc3cc(OC)c(OC)cc3N1CC2 (centres undefined) | 56.2 µM | 
O=C(N/N=C/c1ccc(O)cc1O)c1cccnc1 | 26.1 µM | 1.15 µM
O=C(NNc1cnccn1)c1nc2cc(F)ccc2n2cccc12 | > 30.4 µM | 1.31 µM
O=C1C2[C@@H](C(=O)N1c1ccc(Br)cc1)C13C(=CC2([N+](=O)[O-])[C@@H]2C(=O)N(c4ccc(Br)cc4)C(=O)[C@@H]21)c1ccccc1N3c1ccccc1 (some centres undefined) | > 100 µM | 
O=C1/C(=C/N2N=C(c3ccc4ccccc4c3)CC2c2ccccc2O)SC(=S)N1c1cccnc1 (centres undefined) | 13.1 µM | 0.987 µM
CCOC(=O)C1=C(Nc2ccc(Br)cc2)OCC1=O | > 100 µM | 
CCOc1ccc(N=Cc2c3ccccc3nc3ccccc23)cc1 | > 100 µM | 
CC(=O)[CH-]C(=O)c1ccccc1.CC(=O)[CH-]C(=O)c1ccccc1.O=S(=O)([O-])c1cc([O-])c2c([O-])cc(S(=O)(=O)[O-])cc2c1.[Na+].[Ti+4] | 87.5 µM | 29.1 µM
NCCN.O=C([O-])[O-].O=C([O-])[O-].[Co+3].[K+] | > 100 µM | > 100 µM and 72.3 µM
C1=NC(N(Cc2ccccc2)Cc2ccccc2)N(Cc2ccccc2)N1 (centres undefined) | 62.8 µM | 

These compounds were tested on MCF7 breast (assay: DTP human tumour cell line panel, 48 h).

SMILES | GI50 | TGI
CNCCn1c(=O)c2cc(OC)c(OC)cc2c2cnc3cc4c(cc3c21)OCO4 | < 0.01 µM | 1.14 µM
COc1ccc(-c2noc(N)c2-c2cc(OC)c3c(c2)OCO3)cc1 | 0.707 µM | > 100 µM
CC1(C)N=C(N)N=C(N)N1c1cccc(OCCOc2cccc([N+](=O)[O-])c2)c1 | 2.23 µM | > 100 µM
O=C(NC1CCCCC1)c1ccc(Nc2ncnc3c2cnn3-c2ccccc2)cc1 | 74.1 µM | > 100 µM
N#CC(C#N)=C1CCCOc2c1ccc1ccccc21 | > 100 µM | > 100 µM
COc1cc(C(=O)O[C@H](C(N)=O)[C@]2(C)CO2)c2cccc(C)c2c1 | < 0.0367 µM | > 100 µM
O=C(Nc1ccc(Cl)cc1)Nc1nccs1 | 0.439 µM | > 100 µM
O=C(N/N=C/c1ccc(O)cc1O)c1cccnc1 | 1.94 µM | 7.5 µM
O=C(NNc1cnccn1)c1nc2cc(F)ccc2n2cccc12 | 0.336 µM | > 100 µM
O=C1/C(=C/N2N=C(c3ccc4ccccc4c3)CC2c2ccccc2O)SC(=S)N1c1cccnc1 (centres undefined) | 0.371 µM | > 100 µM
